One series addresses T1, FUS^RGG3PY (Homo sapiens, UniProt P35637).
T1 construct: RGG3-PY region, residues 454-526, unmethylated; His6-protein A tag cut by TEV; E. coli BL21(DE3) Star
T1 sequence (P35637 454-526): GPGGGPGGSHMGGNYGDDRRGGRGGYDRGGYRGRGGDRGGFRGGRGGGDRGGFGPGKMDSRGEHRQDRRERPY
Kind of series: 1H-15N HSQC NMR titration (CSP). In kind it is binding. As to conditions: no RNA; EGCG 10-500 µM; 30 µM protein; pH 6.0, 150 mM NaCl, 25 °C; several sites, non-specific.

In the next series the target is FUS RGG3PY (UniProt P35637 454-526). The experiment in a line: NMR 1H-15N HSQC titration; 30 uM protein, 0-7.5 uM RNA; unmethylated; CSPs lower than methylated at 4:1, line broadening; 50 mM sodium succinate pH 6.0, 150 mM NaCl, 2 mM TCEP, 0.04% NaN3, 10% D2O, 25 C. As to conditions: protein: recombinant; tags: His6-protein A tag removed by TEV.

Take `O=C(O[C@@H]1Cc2c(O)cc(O)cc2O[C@@H]1c1cc(O)c(O)c(O)c1)c1cc(O)c(O)c(O)c1` [EGCG]: the “1H-15N HSQC NMR titration (CSP)” value on FUS^RGG3PY is “EGCG can directly interact with the RGG3-PY region of FUS”.
In the case of UGUGUGUGUGUGUGUGUGUGUGUG (ssRNA) [(UG)12 RNA], the binding result with FUS RGG3PY is “binds”.
